According to PMC6120934, “Inhibiting Multiple Deubiquitinases to Reduce Androgen Receptor Expression in Prostate Cancer Cells” (Scientific Reports, 2018):

Assays:
Type in all cases: biochemical
USP21 = biological target: T1, USP21 (Homo sapiens, UniProt Q9UK80); experiment: MALDI-TOF DUB activity assay with diubiquitin; […] inhibition at […]
T1 construct: recombinant (recUSP21)
T1 sequence (Q9UK80 1-565): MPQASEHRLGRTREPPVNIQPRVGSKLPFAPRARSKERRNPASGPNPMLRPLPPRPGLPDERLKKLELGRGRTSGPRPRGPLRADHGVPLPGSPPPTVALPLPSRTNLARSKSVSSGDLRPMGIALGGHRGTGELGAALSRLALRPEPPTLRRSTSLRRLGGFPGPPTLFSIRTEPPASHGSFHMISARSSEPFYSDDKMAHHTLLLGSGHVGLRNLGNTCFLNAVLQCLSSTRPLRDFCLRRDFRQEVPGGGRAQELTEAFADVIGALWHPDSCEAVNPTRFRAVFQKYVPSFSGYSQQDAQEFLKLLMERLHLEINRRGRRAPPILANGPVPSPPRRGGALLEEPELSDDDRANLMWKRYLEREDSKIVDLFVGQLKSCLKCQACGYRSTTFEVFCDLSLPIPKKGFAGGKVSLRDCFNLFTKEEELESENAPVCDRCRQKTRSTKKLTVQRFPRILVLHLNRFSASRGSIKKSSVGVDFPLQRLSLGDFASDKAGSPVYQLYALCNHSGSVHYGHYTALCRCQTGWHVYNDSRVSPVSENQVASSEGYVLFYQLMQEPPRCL

USP16 = biological target: T2, USP16 (Homo sapiens, UniProt Q9Y5T5); experiment: MALDI-TOF DUB activity assay with diubiquitin, single dose […]
T2 construct: recombinant

USP27X = biological target: T3, USP27X (Homo sapiens, UniProt A6NNY8); experiment: as above
T3 construct: recombinant (recUSP27)
T3 sequence (A6NNY8 1-438): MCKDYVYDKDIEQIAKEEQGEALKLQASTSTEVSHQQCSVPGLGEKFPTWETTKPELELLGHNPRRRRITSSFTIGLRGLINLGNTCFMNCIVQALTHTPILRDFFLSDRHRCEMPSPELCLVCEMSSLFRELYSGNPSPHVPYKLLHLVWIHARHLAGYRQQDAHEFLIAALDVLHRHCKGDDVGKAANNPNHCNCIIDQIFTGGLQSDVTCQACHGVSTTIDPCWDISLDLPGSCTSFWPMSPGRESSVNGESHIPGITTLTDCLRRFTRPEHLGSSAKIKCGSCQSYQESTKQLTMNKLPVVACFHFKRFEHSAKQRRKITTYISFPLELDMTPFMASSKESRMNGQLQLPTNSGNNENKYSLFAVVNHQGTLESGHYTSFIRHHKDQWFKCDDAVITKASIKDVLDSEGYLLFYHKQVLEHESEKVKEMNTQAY

USP36 = biological target: T4, USP36 (Homo sapiens, UniProt Q9P275); experiment: as above
T4 construct: recombinant
T4 sequence (Q9P275 1-1123): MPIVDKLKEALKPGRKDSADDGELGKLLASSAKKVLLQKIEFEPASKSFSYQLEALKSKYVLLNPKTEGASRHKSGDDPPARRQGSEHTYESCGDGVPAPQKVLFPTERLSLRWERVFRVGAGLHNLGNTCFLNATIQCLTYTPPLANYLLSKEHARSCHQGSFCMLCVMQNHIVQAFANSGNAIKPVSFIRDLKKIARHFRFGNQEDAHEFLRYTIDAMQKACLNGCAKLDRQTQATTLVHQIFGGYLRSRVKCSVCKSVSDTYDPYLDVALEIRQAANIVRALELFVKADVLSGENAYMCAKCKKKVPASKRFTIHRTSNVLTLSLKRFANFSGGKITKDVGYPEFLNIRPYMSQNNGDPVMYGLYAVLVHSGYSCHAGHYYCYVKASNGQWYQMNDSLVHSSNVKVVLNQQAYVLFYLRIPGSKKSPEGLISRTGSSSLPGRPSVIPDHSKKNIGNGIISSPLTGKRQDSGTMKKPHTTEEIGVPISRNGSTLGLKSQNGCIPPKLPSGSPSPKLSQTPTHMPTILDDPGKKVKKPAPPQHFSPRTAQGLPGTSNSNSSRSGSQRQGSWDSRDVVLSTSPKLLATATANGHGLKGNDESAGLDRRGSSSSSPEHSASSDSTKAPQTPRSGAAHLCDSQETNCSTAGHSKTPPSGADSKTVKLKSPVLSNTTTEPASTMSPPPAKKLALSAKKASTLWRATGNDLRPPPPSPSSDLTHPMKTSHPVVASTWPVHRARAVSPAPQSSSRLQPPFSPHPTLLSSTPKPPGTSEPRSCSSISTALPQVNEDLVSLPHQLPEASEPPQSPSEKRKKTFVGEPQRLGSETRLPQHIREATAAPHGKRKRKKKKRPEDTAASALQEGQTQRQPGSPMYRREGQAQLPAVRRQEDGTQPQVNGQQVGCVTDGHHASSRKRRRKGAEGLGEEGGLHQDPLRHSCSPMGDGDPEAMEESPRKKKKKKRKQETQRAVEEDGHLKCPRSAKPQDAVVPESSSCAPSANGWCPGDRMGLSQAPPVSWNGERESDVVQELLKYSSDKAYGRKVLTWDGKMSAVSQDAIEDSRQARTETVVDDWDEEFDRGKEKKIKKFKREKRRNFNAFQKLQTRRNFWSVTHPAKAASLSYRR

T2 sequence (Q9Y5T5 whole entry): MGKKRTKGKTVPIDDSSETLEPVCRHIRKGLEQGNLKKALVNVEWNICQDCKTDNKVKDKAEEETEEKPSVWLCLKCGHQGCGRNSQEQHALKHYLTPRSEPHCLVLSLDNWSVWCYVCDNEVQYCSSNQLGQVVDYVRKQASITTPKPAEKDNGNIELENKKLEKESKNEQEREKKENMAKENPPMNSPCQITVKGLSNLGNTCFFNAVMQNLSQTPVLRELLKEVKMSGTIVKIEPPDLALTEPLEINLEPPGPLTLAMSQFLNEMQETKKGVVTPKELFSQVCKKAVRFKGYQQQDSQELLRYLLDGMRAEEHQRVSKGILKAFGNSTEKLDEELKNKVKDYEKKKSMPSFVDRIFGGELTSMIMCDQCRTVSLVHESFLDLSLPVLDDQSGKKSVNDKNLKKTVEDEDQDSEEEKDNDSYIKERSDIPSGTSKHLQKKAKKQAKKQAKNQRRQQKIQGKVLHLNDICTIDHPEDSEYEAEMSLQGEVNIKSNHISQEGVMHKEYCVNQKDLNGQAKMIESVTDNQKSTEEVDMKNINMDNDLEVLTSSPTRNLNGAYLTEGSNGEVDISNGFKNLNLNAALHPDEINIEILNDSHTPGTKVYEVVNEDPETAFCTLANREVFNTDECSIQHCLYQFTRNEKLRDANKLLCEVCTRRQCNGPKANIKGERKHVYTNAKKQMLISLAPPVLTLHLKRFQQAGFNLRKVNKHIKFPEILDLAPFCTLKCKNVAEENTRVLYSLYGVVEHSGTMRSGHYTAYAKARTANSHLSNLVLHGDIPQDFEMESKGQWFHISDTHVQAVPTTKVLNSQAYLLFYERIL

**Q.** With `C=C(C)[C@@H]1CC[C@]2(C(=O)O)CC[C@]3(C)[C@H](CC[C@@H]4[C@@]5(C)CC[C@H](O)C(C)(C)[C@@H]5CC[C@]43C)[C@@H]12` [BA, betulinic acid] as the molecule, how does the IC50 (USP21) read?
**A.** 6.1 µM

**Q.** What about the inhibition at 10 µM (USP16) of the same molecule?
**A.** 40%

**Q.** And the inhibition at 10 µM (USP27X)?
**A.** 60%

**Q.** What about the inhibition at 10 µM (USP36) of the same molecule?
**A.** 40%
